According to patent publication US5707815A, “Mammalian monocyte chemoattractant protein receptors and assays using them” (Regents of the University of California, priority 1995, dated 1998):
Read-outs that look alike come from different tables or passages of the source.

B1: macrophage inhibitory protein-1 [MIP-1β] (protein, UniProt P13236 24-92, looked up)
C-C motif chemokine 4: APMGSDPPTACCFSYTARKLPRNFVVDYYETSSLCSQPAVVFQTKRSKQVCADPSESWVQEYVYDLELN
notes: C--C chemokine, obtained from R&D

Legend:
MCP-1RB receptor [1] = assay type: cell-based, human; settings: for IC50: Table I, read-out: Inhibition of Adenylyl Cyclase IC50 (nM) MCP-1RB; for activation of the MCP-1 receptor in the adenylyl cyclase assay: high concentrations
Procedure: (§1) To investigate inhibition of adenylyl cyclase activity, HEK-293 cells stably-transfected with the MCP-1RB receptor and the MIP-1α/RANTES receptor were grown until confluent in 24-well tissue culture dishes and labeled overnight with 2 μCi/ml of [^3 H]adenine (25-30 Ci/mmol) (New England Nuclear, Boston, Mass.) in MEM-EBSS supplemented with 10% FCS. The next day, the cells were washed by incubation at room temperature with 0.5 ml of serum-free MEM-EBSS media supplemented with 10 mM HEPES, 1 mg/ml BSA, and 1 mM IBMX (3-isobutyl-1-methylxanthine) for 5 min. […] The incubation was terminated by replacement of the media with 1 ml of ice-cold 5% TCA (trichloroacetic acid), 1 mM cAMP, and 1 mM ATP (Sigma). Following incubation at 4° C. for 30 min, the labeled [^3 H]ATP and [3H]cAMP pools were separated and quantitated by chromatography on Dowex 50W (200-400 mesh, hydrogen form, from Sigma) and neutral alumina columns (also from Sigma), as described in Hung, J. Biol. Chem. 267:20831-34 (1992) and Wong, Nature 351: 63-65 (1991). The 1 ml acid supernatant was loaded onto a 1-ml Dowex 50W column and the ATP pool eluted with 3 ml of H2 O. The Dowex 50W columns were then placed over 1-ml alumina columns, and 10 ml of H2 O was added to the Dowex resin and the eluant allowed to drop directly onto the neutral alumina. The cAMP pool was then eluted directly from the alumina with 5 ml of 0.1M imidazole/0.01mM sodium azide. The [^3 H]ATP and [^3 H]cAMP fractions were counted by liquid scintillation spectroscopy. The cAMP pool for each sample was normalized to its own ATP pool and expressed as a ratio by the equation (cAMP cpms/ATP cpms)×100. In each experiment full dose-response curves were generated and expressed as a percent of the forskolin control.
(§2) Inhibition of MCP-1RB receptor activation by bordetella pertussis toxin was investigated. Pertussis toxin (List Biological Labs, Inc., Campbell, Calif.) was dissolved in 0.01M sodium phosphate, pH 7.0, 0.05M sodium chloride and diluted into normal serum containing media at final concentrations of 0.1 ng/ml to 100 ng/ml, and incubated with cells overnight (14-16 h) at 37° C. The conditions of the Pertussis toxin treatment of the 293 cells were identical for calcium fluorimetric and adenylyl cyclase experiments. In the adenylyl cyclase experiments, the Pertussis toxin was added at the same time as [^3 H]adenine.
(§3) Dose response curves generated in the calcium fluorimetric and adenylyl cyclase inhibition assays were fit by a nonlinear least squares program to the logistic equation:
(§4) Effect=max effect/[1+(EC50 /(agonist)^n)]
(§5) where n and EC50 represent the Hill coefficient and the agonist concentration that elicited a half-maximal response, respectively, and were derived from the fitted curve. Curve fitting was done with the computer program "Prism" (by Graph Pad, San Diego, Calif.). Results represent the mean ±SE. The 95% confidence intervals (CI) of the EC50 and IC50 values, when given, were calculated from the log EC50 and IC50 values, respectively.

MIP-1α/RANTES receptor = experiment: Inhibition of adenylyl cyclase (cAMP accumulation) in HEK-293 cells stably transfected with MIP-1α/RANTES receptor; assay type: cell-based; settings: for activation of the MIP-1α/RANTES receptor: at up to 1 μM
Procedure: as §1
In similar experiments the MIP-1α/RANTES receptor was stably transfected into 293 cells and also found to mediate potent and dose-dependent inhibition of adenylyl cyclase activity. Unlike the MCP-1RB receptor, however, the MIP-1α/RANTES receptor was activated by multiple chemokines with varying degrees of potency.
as §3, §4, §5

MCP-1RB receptor [2] = experiment: Intracellular calcium mobilization (indo-1) in stably transfected MCP-1RB/293 cells; assay type: cell-based, human; settings: for block of stimulation of the cells by MCP-1 / stimulation of calcium signals: MCP-1RB/293 cells; for stimulation of calcium signals: high concentrations
Procedure: Calcium mobilization in 293 cells was then investigated. Transfected HEK-293 cells were grown until confluent, trypsinized briefly, washed with phosphate buffered saline containing 1 mg/ml BSA (PBS-BSA), and resuspended in serum-free MEM-EBSS supplemented with 1 mg/ml BSA and 10 mM HEPES (pH 7.0) at a density of 2×10^7 cells/ml. The cells were incubated in the dark at 37° C. for 20 min in the presence of 5-10 μg/ml indo-1 AM (Molecular Probes, Inc., Eugene, Oreg.). Nine volumes of PGS-BSA were added, and the cells were incubated for an additional 10 min at 37° C., pelleted by centrifugation, and washed twice with 50 ml of the PBS-BSA solution. Washed, indo-1-loaded cells were then resuspended in Hank's Balanced Salt Solution (1.3 mM Ca^2+) supplemented with 1 mg/ml BSA (HBS-BSA) at a density of approximately 0.5×10^6 cells/ml at room temperature. To measure intracellular calcium ([Ca^2+ ]i), 0.5 ml of the cell suspension was placed in a quartz cuvette in a Hitachi F-2000 fluorescence spectrophotometer. […] Intracellular calcium was measured by excitation at 350 nm and fluorescence emission detection at 490 nm (F1) and 410 nm (F2) wavelengths. The [Ca^2+ ]i was estimated by comparing the 490/410 fluorescence ratio after agonist application (R) to that of calibration ratios measured at the end of each run, according to the equation:
[Ca^2+ ]i =Kd ×[(R--Rmin)/(Rmax
where Rmax and Rmin represent the fluorescence ratio under saturating (1.3 mM Ca^2+) and nominally free (10 mM EGTA, Sigma Chemical Co.) calcium conditions, Kd is the dissociation constant of calcium for indo-1, R is the fluorescence ratio, and Sf2/Sb2 is the fluorescence ratio of free and bound indo-1 dye at 410 nm. See Thomas, AP and Delaville, F (1991) in Cellular Calcium, a Practical Approach, Oxford Univ. Press, pp. 1-54.
To quantirate calcium responses, MCP-1 dose response curves were generated in each experiment and the results were expressed as a percent of the maximum calcium signal (at 300 nM MCP-1) measured in that experiment. The changes in [Ca^2+ ]i levels in response to each concentration of agonist were determined by subtracting the baseline from peak [Ca^2+ ]i levels, which were determined by averaging 5 seconds of data prior to agonist addition and surrounding the peak response, respectively. In experiments done to determine the role of extracellular calcium, 3 mM EGTA was added 60-90 seconds prior to MCP-1. […] All experiments were performed at room temperature.
as §2, §3, §4, §5

MCP-1RA = experiment: Ca45 efflux assay in Xenopus oocytes injected with MCP-1RA cRNA; assay type: cell-based, human; settings: ligand at 500 nM
Procedure: (§6) The calcium efflux assay was performed to confirm expression of functional MCP-1R protein and to determine whether the MCP-1 receptors A and B conferred responsiveness to MCP-1 or other chemokines. In this assay, MCP-1RA and 1RB cRNA was microinjected into Xenopus oocytes and receptor signaling activities measured by detection of agohist-induced calcium mobilization.
(§7) As described in Vu, Cell 64:1057-68(1991), cRNA was prepared by SP6 RNA polymerase transcription from a NotI linearized vector and run on an agarose gel to confirm a single band of the expected size. One day after harvesting, oocytes were injected with 20 ng of cRNA in a total volume of 50 nl per oocyte. After incubation in modified Barth's buffer for 2 days at 16° C., the oocytes were loaded with Ca^45 (50 uCi/ml, Amersham, Arlington Heights, Va.) for 3 hours, washed for one hour, and placed into wells of a 24-well dish in groups of seven, in a volume of 0.5 ml Ca^45 efflux was determined by collecting the media at 10 minute intervals and counting beta emissions in a liquid scintillation counter. […] Uninjected oocytes were used as controls.

MCP-1RB = experiment: Ca45 efflux assay in Xenopus oocytes injected with MCP-1RB cRNA; assay type: cell-based, human; settings: ligand at 500 nM
Procedure: as §6, §7

MM6 cells = experiment: MCP-1 induced calcium flux in MM6 cells (calcium efflux assay); assay type: cell-based, human; settings: label = chemokine given first, MCP-1 versus RANTES (or MIP-1α)
Procedure: Because monocytes are difficult to isolate in usable quantity and express less than 2000 high affinity MCP-1 binding sites per cell, a cultured cell line that responded well to MCP-1 had to be identified. Using the calcium effiux assay as described in Vu, Cell 64:1057-68(1991), MCP-1 induced calcium fluxes in various cell lines were measured. […] In contrast, a dose-dependent calcium flux was detected in MM6 cells, with half maximal stimulation at 4nM MCP-1.

MCP-1RB receptor [3] = experiment: Equilibrium binding of 125I-MCP-1 to MCP-1RB expressing HEK-293 cells; set-up: species or system human; settings: unlabeled chemokine, 500 pM 125I-labeled MCP-1
Procedure: Equilibrium binding assays were then performed using the method of Ernst, J. Immunol. 152:3541-49 (1994). […] Competition experiments were performed using 500 pM ^125 I-labeled MCP-1 and the concentrations of unlabeled chemokines as indicated in FIG. 7A-B.
Equilibrium binding data were analyzed according to the method of Scatchard using the program "LIGAND" (Biosoft, Ferguson, Mo.) on a Macintosh computer. See Munson, Anal. Biochem. 107: 220-39 (1980).

[4] = MIP-1α/RANTES receptor, read-out: IC50 for inhibition of adenylyl cyclase
[5] = pretreatment overnight, 0.1 to 100 ng/ml

Row | Molecule | block of stimulation of the cells by MCP-1 (MCP-1RB receptor [2]) | stimulation of calcium signals (MCP-1RB receptor [2]) | IC50 (MCP-1RB receptor [1]) [nM] | activation of the MCP-1 receptor in the adenylyl cyclase assay (MCP-1RB receptor [1]) | calcium efflux response elicited (MCP-1RA) | calcium efflux response elicited (MCP-1RB) | competition for 125I-MCP-1 binding (MCP-1RB receptor [3]) | also measured
1 | C=C[C@@]1(C)CC(=O)[C@]2(O)[C@@]3(C)[C@@H](O)CCC(C)(C)[C@@H]3[C@H](O)[C@H](OC(C)=O)[C@@]2(C)O1 [Forskolin, forskolin, reference compound] |  |  |  |  |  |  |  | increase of cAMP levels (MCP-1RB receptor [1]; hek-293 cells, 20 min, 10 µM): 16 fold
2 | Gro-α: C-X-C chemokine | failed to block | failed to stimulate significant calcium signals | > 1000 | Virtually no activation |  |  |  | IC50 (MIP-1α/RANTES receptor; Table I, read-out: Inhibition of Adenylyl Cyclase IC50 (nM) MIP-1α/RANTES R): > 1000 nM; activation of the MIP-1α/RANTES receptor (MIP-1α/RANTES receptor): did not activate
3 | RANTES: C--C chemokine, obtained from R&D | failed to block | failed to stimulate significant calcium signals | > 1000 | Virtually no activation | no response | No response | did not compete for binding | IC50 (MIP-1α/RANTES receptor; [4]): ~0.1 nM; effect of prior exposure to the chemokine on the calcium response to the other chemokine (MM6 cells): could not be ablated
4 | interleukin-8 [IL-8] | failed to block | failed to stimulate significant calcium signals |  | Virtually no activation | No response | No response |  | activation of the MIP-1α/RANTES receptor (MIP-1α/RANTES receptor): did not activate; calcium efflux response elicited (MCP-1RA; listed as Il-8): no response
5 | pertussis toxin [reference compound] |  |  |  |  |  |  |  | component resistant to inhibition (MCP-1RB receptor [2]; calcium mobilization, up to 100 ng/ml of PT): ≈ 20%; block of MCP-1-induced mobilization of intracellular calcium (MCP-1RB receptor [2]; [5]): substantially blocked; component resistant to inhibition (MCP-1RB receptor [1]; adenylyl cyclase inhibition, up to 100 ng/ml of PT): ≈ 20%; shift of the MCP-1 IC50 for cAMP accumulation (MCP-1RB receptor [1]; pertussis toxin treatment): without significantly shifting; block of MCP-1 inhibition of adenylyl cyclase (MCP-1RB receptor [1]; [5]): substantially blocked
6 | macrophage inhibitory protein-1 [MIP-1α] | failed to block | failed to stimulate significant calcium signals | > 1000 | Virtually no activation | no response | No response | did not compete for binding | IC50 (MIP-1α/RANTES receptor; [4]): ~0.1 nM
7 | B1 | failed to block | failed to stimulate significant calcium signals | > 1000 | Virtually no activation | no response | No response | did not compete for binding | 
